Measured values reported in patent US20220392580A1, “COMPUTATIONAL MODEL TRAINED TO PREDICT INTERACTING PAIRS BASED ON WEAKLY-CORRELATED FEATURES” (Cornell University, priority 2016, published 2022).
Where a name gives a salt, the structure may show the parent alone.

What was measured:
breast cancer patients = settings: recent clinical trials; cited from earlier work
[1] = test system: D1-like (DRD1/5) subfamily of dopamine receptors; settings: arrestin recruitment GPCR profiling
Method: (§1) To test the target prediction, in vitro profiling of GPCR activity using a hetereologous reporter assay for arrestin recruitment, a hallmark of GPCR activation was performed.

[2] = test system: D2-like (DRD2/3/4) subfamily of dopamine receptors; settings: arrestin recruitment GPCR profiling
Method: as §1

DRD4 = DRD4 (Homo sapiens, UniProt P21917); settings: arrestin recruitment GPCR profiling; potency relative to DRD2 and DRD3
Method: as §1

[3] = test system: short and long isoforms of DRD2; settings: arrestin recruitment GPCR profiling
Method: as §1

other GPCRs = assay: in vitro profiling of GPCR activity, heterologous reporter assay for arrestin recruitment; assay type: cell-based; settings: under the evaluated conditions
Method: as §1

[4] = test system: nuclear hormone receptors; assay: interaction profiling
[5] = test system: other drug targets of FDA-approved cancer therapies; assay: interaction profiling
DRD2L [6] = target: T1, DRD2L (Homo sapiens, UniProt P14416); settings: another measure of DRD2L activation
DRD2L [7] = target: T1, DRD2L; assay: antagonism of arrestin recruitment to DRD2L, Gaddam/Schild EC50 shift analysis; assay type: cell-based; design: expressed in transfected cells; settings: dopamine completely reverses dose-dependent antagonism of up to 100 uM ONC201
Method: as §1

T1 sequence (P14416 whole entry): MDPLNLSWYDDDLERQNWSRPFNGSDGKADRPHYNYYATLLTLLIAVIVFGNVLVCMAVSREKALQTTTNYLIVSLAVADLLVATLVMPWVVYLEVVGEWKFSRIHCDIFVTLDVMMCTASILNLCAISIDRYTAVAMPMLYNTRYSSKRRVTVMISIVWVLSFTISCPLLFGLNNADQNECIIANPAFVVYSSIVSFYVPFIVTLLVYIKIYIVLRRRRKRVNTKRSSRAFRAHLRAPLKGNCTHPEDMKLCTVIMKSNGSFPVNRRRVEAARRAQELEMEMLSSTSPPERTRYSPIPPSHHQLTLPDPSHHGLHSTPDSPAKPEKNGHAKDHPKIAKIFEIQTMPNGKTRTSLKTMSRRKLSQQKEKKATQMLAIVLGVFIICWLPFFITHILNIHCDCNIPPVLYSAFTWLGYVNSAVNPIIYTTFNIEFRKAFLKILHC
Chain of DRD4 (P21917 whole entry): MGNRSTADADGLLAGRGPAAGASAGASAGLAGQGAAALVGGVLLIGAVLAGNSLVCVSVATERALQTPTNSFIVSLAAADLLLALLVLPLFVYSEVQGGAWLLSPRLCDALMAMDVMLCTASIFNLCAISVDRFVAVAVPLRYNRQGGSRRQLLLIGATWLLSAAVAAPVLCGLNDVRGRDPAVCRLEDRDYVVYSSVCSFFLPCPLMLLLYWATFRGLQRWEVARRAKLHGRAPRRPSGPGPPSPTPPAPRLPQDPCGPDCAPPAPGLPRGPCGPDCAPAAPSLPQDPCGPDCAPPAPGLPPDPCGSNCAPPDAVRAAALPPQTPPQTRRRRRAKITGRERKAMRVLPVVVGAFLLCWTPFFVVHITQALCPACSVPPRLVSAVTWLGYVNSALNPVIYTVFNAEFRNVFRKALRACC

Compound | patients showing any detectable response after treatment (breast cancer patients) | antagonism of D1-like dopamine receptors [1] | antagonism of D2-like dopamine receptors [2] | antagonism of DRD4 (DRD4) | antagonism of DRD2 short and long isoforms [3] | antagonism of other GPCRs (other GPCRs) | interactions with nuclear hormone receptors [4] | interactions with other drug targets of FDA-approved cancer therapies [5] | cAMP modulation in response to compound (DRD2L [6]) | interactions with the kinome (the kinome) | mode of antagonism of DRD2L (reversal by dopamine) (DRD2L [7])
C=C1C[C@@H]2CC[C@@]34C[C@H]5O[C@H]6[C@@H](O3)[C@H]3O[C@H](CC[C@@H]3O[C@H]6[C@H]5O4)CC(=O)C[C@@H]3[C@@H](OC)[C@@H](C[C@H](O)CN)O[C@H]3C[C@H]3O[C@@H](CC[C@@H]1O2)C[C@@H](C)C3=C [Eribulin, Eribulin mesylate] | < 50% | – | – | – | – | – | – | – | – | – | –
Cc1ccccc1CN1C(=O)C2=C(CCN(Cc3ccccc3)C2)N2CCN=C12 [ONC201] | – | but not D1-like (DRD1/5) | selectively antagonizes | weaker potency | antagonized | no observed antagonism | no significant interactions | no significant interactions | Confirmatory results | no significant interactions | direct, competitive antagonism
